The record followed here is patent US8415158B2, “Compositions and methods useful for culturing differentiable cells” (ViaCyte, Inc., priority 2006, dated 2013).

For data set [1], the system named is R1 mouse ES cells. As to the kind of experiment: Proliferation of R1 mouse ES cells with ErbB tyrosine kinase inhibitors, alkaline phosphatase staining. The format is cell-based. Here is the method:
AG1478 and AG879 were used to examine the role of HRG/ErbB signaling in mouse ES cells. R1 mouse ES cells were maintained in standard conditions in DMEM, 10% FBS, 10% KSR, 0.5 U/ml penicillin, 0.5 U/ml streptomycin, 1×NEAA, 1 mM sodium pyruvate, 1000 U/ml LIF (ESGRO), 0.1 mM 13-ME, and were passaged with 0.5% trypsin/EDTA. 2×10^5 cells/well were plated in 6 well trays on […]™ diluted at 1:1000. The day after plating, DMSO (carrier control), 1-50 μM AG1478, or 1-50 μM AG879 was added with fresh medium. The cells were cultured an additional 8 days, with daily media changes. The cultures were then fixed and stained for alkaline phosphatase activity.

For data set [2], the system named is BG01v cells. As to the kind of experiment: Proliferation of BG01v cells with ErbB tyrosine kinase inhibitors, alkaline phosphatase staining. It is filed as cell-based. The conditions noted are these: 5 days. The method, then: To examine the effect of known inhibitors of ErbB tyrosine kinases in hESCs, BG01 v cells were plated in 6 well trays on […]™ diluted at 1:1000, in defined culture medium (DC) containing 100 ng/ml LongR3-IGF1, 8 ng/ml FGF2 and 1 ng/ml Activin A. On the next day, DMSO (carrier control), 50 nM-20 μM AG1478 (an ErbB1 inhibitor), or 100 nM-20 μM AG879 (an ErbB2 inhibitor) was added with fresh medium. The cells were cultured for an additional 5 days, with daily media changes. The cultures were then fixed and stained for alkaline phosphatase activity.

The test system of data set [3] is ES cells. As to the kind of experiment: Suspension cultures in various media, cell counting. The format is cell-based. The settings on record: added to HAIF, HAI and HI conditions. Here is the method:
To determine if suspensions of ES cells could be cultured in the absence of FGF2 and/or Activin A, ES cells were cultured in a variety of media, with and without these factors. […] In addition, the cells in each media were successfully passaged with no morphological signs of differentiation.

The subject of data set [4] is BG02 cells. As to the kind of experiment: Suspension culture of BG02 cells with and without apoptosis inhibitor, cell counting. It is filed as cell-based, human. The method, then: Starting cultures of BG02 cells were maintained in DC-HAIF medium on dishes coated with 1:200 matrigel, as described herein and were split by passaging with ACCUTASE™. To initiate suspension culture, BG02 cells were disaggregated with ACCUTASE™ and placed in low attachment 6-well trays at a density of 1.6, 3, or 6×10^5 cells/ml (0.5, 1, or 2×10^6 cells in 3 ml volumes) in DC-HAIF medium. The trays were placed on a rotating platform at 80-100 rpm in a humidified incubator with 5% CO2. Under these conditions hESCs coalesced into small spheres of morphologically viable cells within 24 hours.
To attenuate the loss of cells after initial passaging in suspension, an inhibitor of apoptosis was added to the medium. Cells were passaged as in Example 12, except that Y-27632, an inhibitor of p160-Rho-associated coiled-coil kinase (ROCK), was added to the medium.
Suspension aggregates of BG02 cells were formed by seeding 2×10^6 single cells in 6-well dishes in 3 ml DC-HAIF medium, at 100 rpm on a rotating platform in an incubator (Table 2, Experiment A). 10 μM Y27632 ROCK inhibitor was added to test wells for the course of the experiment and the cultures observed daily and counted after 24 hours (day 1) and after 4 or 5 days. […] Cell counting confirmed that more viable cells were present in the presence of inhibitor (Table 2, Experiment A). This difference in cell number persisted throughout the course of the culture period, with more cells also observed on day 4, compared to cultures without inhibitor. As with previous suspension culture experiments, cells exposed to Y27632 could also be serially passaged, and maintained in an undifferentiated state (not shown).
As previous experiments had shown that growth rates of cells in suspension and adherent culture were similar after the initial 24 hours, an experiment was performed where Y27632 was removed after this initial period (Table 2, Experiment B). […] 1.4×10^7 (+Y27632) and 1.8×10^7 (+/−Y27632) viable cells were generated when inhibitor was present compared to 3.9×10^6 cells in untreated cultures. This analysis confirmed that Y27632 had the largest impact during the first 24 hours of suspension hESC culture.
Because of the enhanced survival and aggregation observed in the presence of Y27632, an experiment was performed to examine if it was possible to reduce the number of cells used to seed suspension cultures (Table 2, Experiment C). […] To determine if addition of a ROCK inhibitor would allow cell seeding at lower densities, a range of cell concentrations (from about 2×10^6 total cells down to about 1×10^5 total cells was used to seed suspension cultures in 6-well trays cells in 3 ml DC-HAIF. 10 μM Y27632 was added to all conditions, and the cell number and viability assessed on day 5. Successful aggregation and expansion was observed even at low seeding densities. An approxiate 13 fold expansion of viable cells was observed even cultures that were only seeded with 1×10^5 cells. Inhibition of ROCK with Y27632 therefore facilitated initial survival of hESCs at much lower densities in this suspension system.

Data set [5] concerns hESCs. The experiment in a line: Titration of insulin and IGF1 at physiological levels, hESC proliferation. It is filed as cell-based, human. The conditions noted are these: titrated from about 0.2 to about 200 ng/ml, cells counted after 5 days. Here is the method:
Essentially all of the reported culture conditions for hESCs to date include supraphysiological levels of insulin, which can stimulate both IR and IGF1R. To distinguish the activities that insulin and insulin-substitutes exert, compared to IGF1, hESCs are cultured in defined media conditions in physiological levels of these growth factors. The concentrations of insulin and IGF1 are titrated from about 0.2 to about 200 ng/ml and cell proliferation is monitored by counting cells after 5 days. Cultures that expand successfully are serially passaged 5 times.

Data set [6] addresses T1, ErbB2 (Homo sapiens, UniProt P04626).
T1 construct: endogenous in cells; host or cells: human embryonic stem cells (hESCs) grown in DC-HAIF
As to the kind of experiment: Western blotting of ErbB2 autophosphorylation in starved/heregulin pulsed hESCs. The format is cell-based. The conditions noted are these: starved/heregulin pulsed hESCs growing in DC-HAIF. The text has this: (§1) Colony and cell-counting assays confirmed that LongR3-IGF1 and HRG played the major roles in self-renewal and proliferation in the context of one of the embodiments of the present invention (FIGS. 6D, 6E). Phosphorylation of IGF1R, IR, FGF2a, ErbB2, and ErbB3 was also observed in both steady-state DC-HAIF cultures, and in starved cultures that were pulsed with DC-HAIF (FIG. 6F).

The subject of data set [7] is BG02 hESCs. The experiment in a line: Proliferation of hESCs growing in conditioned medium with AG825. The conditions noted are these: 50 μM (FIG. 6A). It is filed as cell-based, human.
Excerpt: as §1

[8] abbreviates: Expt. A, seeding 2 × 10^6, p0, day 1.
Where [9] appears, read: Expt. A, seeding 2 × 10^6, p0, day 4.
Setting [10] is: Expt. B, seeding 2 × 10^6, p0, day 1.
Where [11] appears, read: Expt. B, seeding 2 × 10^6, p0, day 5.
[12] abbreviates: Expt. B, seeding 2 × 10^6, p0, day 5, Y27632 removed after 24 hours.
Where [13] appears, read: Expt. C, seeding 1 × 10^6, p0, day 1.
[14] abbreviates: Expt. C, seeding 1 × 10^6, p0, day 5.
Where [15] appears, read: Expt. C, seeding 2 × 10^6, p0, day 1.
[16] abbreviates: Expt. C, seeding 2 × 10^6, p0, day 5.
[17] abbreviates: Expt. C, seeding 2.5 × 10^5, p0, day 1.
Setting [18] is: Expt. C, seeding 2.5 × 10^5, p0, day 5.
[19] abbreviates: Expt. C, seeding 5 × 10^5, p0, day 1.
Setting [20] is: Expt. C, seeding 5 × 10^5, p0, day 5.
The mark [21] stands for this setting: Expt. C, seeding 10^5, p0, day 1.
The mark [22] stands for this setting: Expt. C, seeding 10^5, p0, day 5.

T1 sequence (P04626 23-1255): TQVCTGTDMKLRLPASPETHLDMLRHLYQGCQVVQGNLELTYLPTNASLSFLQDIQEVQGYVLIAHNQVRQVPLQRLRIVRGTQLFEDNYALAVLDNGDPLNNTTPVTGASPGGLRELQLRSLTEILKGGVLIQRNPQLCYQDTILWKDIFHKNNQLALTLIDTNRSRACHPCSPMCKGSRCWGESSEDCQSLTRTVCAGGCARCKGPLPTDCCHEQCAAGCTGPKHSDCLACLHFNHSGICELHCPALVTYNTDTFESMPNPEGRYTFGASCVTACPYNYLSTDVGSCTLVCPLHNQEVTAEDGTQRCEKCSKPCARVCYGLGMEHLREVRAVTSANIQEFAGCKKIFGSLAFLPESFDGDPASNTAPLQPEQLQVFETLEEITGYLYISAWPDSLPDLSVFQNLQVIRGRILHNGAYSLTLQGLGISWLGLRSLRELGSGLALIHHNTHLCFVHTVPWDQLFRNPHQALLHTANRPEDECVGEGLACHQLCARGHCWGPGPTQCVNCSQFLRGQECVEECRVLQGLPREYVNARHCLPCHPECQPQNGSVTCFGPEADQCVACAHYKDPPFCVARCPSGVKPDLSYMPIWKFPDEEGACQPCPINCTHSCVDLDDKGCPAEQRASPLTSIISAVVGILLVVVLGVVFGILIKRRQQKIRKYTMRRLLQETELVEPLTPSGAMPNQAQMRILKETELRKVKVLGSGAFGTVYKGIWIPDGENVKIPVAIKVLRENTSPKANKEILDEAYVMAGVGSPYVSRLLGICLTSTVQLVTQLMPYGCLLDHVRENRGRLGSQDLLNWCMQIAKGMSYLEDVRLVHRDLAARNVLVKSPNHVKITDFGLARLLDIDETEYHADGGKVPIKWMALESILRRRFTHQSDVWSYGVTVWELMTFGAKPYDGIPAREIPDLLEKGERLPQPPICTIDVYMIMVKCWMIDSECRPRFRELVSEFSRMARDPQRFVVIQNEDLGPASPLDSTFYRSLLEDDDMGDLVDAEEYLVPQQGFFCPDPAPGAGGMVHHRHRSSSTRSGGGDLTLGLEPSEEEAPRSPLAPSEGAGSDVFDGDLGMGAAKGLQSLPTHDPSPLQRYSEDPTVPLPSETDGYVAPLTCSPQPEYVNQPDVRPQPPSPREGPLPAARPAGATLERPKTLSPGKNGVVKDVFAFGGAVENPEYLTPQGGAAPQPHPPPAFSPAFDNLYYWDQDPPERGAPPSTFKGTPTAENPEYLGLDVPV

On to `COc1cc2ncnc(Nc3cccc(Cl)c3)c2cc1OC` [AG1478], for which the “effect on cell proliferation” value is reported as “no apparent affect on cell proliferation” in data set [1] (1-50 μM, 8 days, 10% FBS, 10% KSR, LIF) and “neither DMSO nor AG1478 (50 nM-20 μM) had an apparent affect on cell proliferation” in data set [2] (50 nM-20 μM, DC medium with LongR3-IGF1, FGF2, Activin A).

Turning to `C[C@@H](N)[C@H]1CC[C@H](C(=O)Nc2ccncc2)CC1` [Y27632], the “yield of cells generated by day 5” value in data set [3] is given as “increased the yield of cells”. For the same compound, in data set [4] (10 μM, compared to medium without inhibitor), the “size of aggregates in initial aggregation phase of suspension culture” value is given as “much larger aggregates were formed”. For the same compound, the “initial survival and aggregation of hESCs after initial passage” value in data set [4] (10 μM, first 24 hours) is “enhanced initial survival and aggregation of hESCs”. Besides, the “cells observed when the aggregates were split again” value in data set [4] (Expt. A, 10 μM, versus without inhibitor) was “almost twice as many cells”. For the same compound, the “Cell counts: total” value is 4.6 × 10^6 cells in data set [4] (Expt. A, p1, day 4); 1.6 × 10^6 cells in data set [4] (setting [8]); 7.8 × 10^6 cells in data set [4] (setting [9]); 1.9 × 10^6 cells in data set [4] (setting [10]); 1.5 × 10^7 cells in data set [4] (setting [11]); 1.9 × 10^7 cells in data set [4] (setting [12]). Further, the “Cell counts: total” value in data set [4] (setting [13]) is recorded as 8.7 × 10^5 cells; in data set [4] (setting [14]), 8.6 × 10^6 cells; in data set [4] (setting [15]), 1.9 × 10^6 cells; in data set [4] (setting [16]), 1.4 × 10^7 cells; in data set [4] (setting [17]), 2.6 × 10^5 cells; in data set [4] (setting [18]), 2.7 × 10^6 cells. Also, the “Cell counts: total” value in data set [4] (setting [19]) was 4.6 × 10^5 cells; in data set [4] (setting [20]), 5.7 × 10^6 cells; in data set [4] (setting [21]) it was 6.8 × 10^4 cells; in data set [4] (setting [22]), 1.4 × 10^6 cells. The “Cell counts: viable” value in data set [4] (Expt. A, p1, day 4) is listed as 4.2 × 10^6 cells; in data set [4] (setting [8]), 1.2 × 10^6 cells; in data set [4] (setting [9]), 7.1 × 10^6 cells; in data set [4] (setting [10]), 1.4 × 10^6 cells; in data set [4] (setting [11]) it was 1.4×10^7 cells; in data set [4] (setting [12]) it was 1.8×10^7 cells. Also, the “Cell counts: viable” value is on record as 6.6 × 10^5 cells in data set [4] (setting [13]); 7.8 × 10^6 cells in data set [4] (setting [14]); 1.6 × 10^6 cells in data set [4] (setting [15]); 1.2 × 10^7 cells in data set [4] (setting [16]); 2.3 × 10^5 cells in data set [4] (setting [17]); 2.5 × 10^6 cells in data set [4] (setting [18]). Besides, the “Cell counts: viable” value is reported as 3.5 × 10^5 cells in data set [4] (setting [19]), 5.3 × 10^6 cells in data set [4] (setting [20]), 5.4 × 10^4 cells in data set [4] (setting [21]) and 1.3 × 10^6 cells in data set [4] (setting [22]). Besides, the “viable cells, %” value was determined as 91% in data set [4] (Expt. A, p1, day 4); 74% in data set [4] (setting [8]); 91% in data set [4] (setting [9]); 73% in data set [4] (setting [10]); 92% in data set [4] (setting [11]); 96% in data set [4] (setting [12]). For the same compound, the “viable cells, %” value in data set [4] (setting [13]) was found to be 76%; in data set [4] (setting [14]) it was 91%; in data set [4] (setting [15]), 84%; in data set [4] (setting [16]) it was 90%; in data set [4] (setting [17]), 91%; in data set [4] (setting [18]), 91%. Also, the “viable cells, %” value in data set [4] (setting [19]) was 75%; in data set [4] (setting [20]), 93%; in data set [4] (setting [21]) it was 79%; in data set [4] (setting [22]), 92%. Besides, the “expansion of viable cells” value in data set [4] (seeded with 1×10^5 cells, 10 μM Y27632, day 5) is about 13 fold.

“insulin: protein that binds to the insulin receptor”: the “expansion of hESC cultures at physiological levels” value in data set [5] is “do not”.

As for `CC(C)(C)c1cc(/C=C(\C#N)C(N)=S)cc(C(C)(C)C)c1O` [AG879], in data set [1] (20 μM, 8 days), the effect on proliferation entry is reported as “may have slowed proliferation”. Also, the “effect on cell growth” value in data set [1] (50 μM, 8 days) is reported as “substantially inhibited cell growth”; in data set [2] (5 μM), “substantially inhibited cell growth”. Also, the “concentration required to inhibit proliferation, mESCs relative to BG01v cells” value in data set [1] (higher for mESCs than for BG01v cells in defined conditions) was about 10 ×. Further, the cell death entry in data set [2] (20 μM) is given as “caused cell death”.

With `COc1cc(/C=C(\C#N)C(N)=O)cc(CSc2nc3ccccc3s2)c1O` [AG825], in data set [6], the “autophosphorylation of ErbB2 at tyrosine-1248” value is given as “inhibited autophosphorylation”. Further, in data set [7], the “effect on proliferation of hESCs growing in conditioned medium (CM)” value is recorded as “significantly inhibited proliferation”.

Take IGF1: insulin-like growth factor: the “expansion of hESC cultures at physiological levels” value in data set [5] is “support the expansion of hESC cultures”.
